In PubChem BioAssay (NCI):
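Dose response: 5 concentrations. Exposure: 48 h. Format: 96-well plates. Endpoint: linear interpolation; highest concentration if not reached. Here, GI50 denotes the concentration required for 50% inhibition of growth. The concentration for full growth arrest is given as TGI.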 Where a SMILES comes first, the peptide text is derived from it. The star is where a group is joined. Cbz = O=C(OCc1ccccc1)*; NHNH2 = NN*

Legend:
Test in all cases: NCI tumour cell line growth inhibition, 48 h
RPMI-8226 leukemia = test system: RPMI-8226 leukemia
ACHN renal = test system: ACHN renal
MDA-N = test system: MDA-N
DU-145 prostate = test system: DU-145 prostate
T-47D breast = test system: T-47D breast
CCRF-CEM leukemia = test system: CCRF-CEM leukemia
MDA-MB-435 = test system: MDA-MB-435
HS 578T breast = test system: HS 578T breast
SK-MEL-5 melanoma = test system: SK-MEL-5 melanoma

SMILES | TGI (RPMI-8226 leukemia) | TGI (ACHN renal) | TGI (MDA-N) | TGI (DU-145 prostate) | TGI (T-47D breast) | TGI (CCRF-CEM leukemia) | TGI (MDA-MB-435) | TGI (HS 578T breast) | TGI (SK-MEL-5 melanoma) | GI50 (RPMI-8226 leukemia) | GI50 (ACHN renal) | GI50 (HS 578T breast) | GI50 (SK-MEL-5 melanoma) | GI50 (DU-145 prostate) | GI50 (T-47D breast) | GI50 (CCRF-CEM leukemia) | GI50 (MDA-MB-435)
Nc1c(C(=O)c2ccc(Cl)cc2)[nH]c(NCc2ccccc2)c1C(=S)Nc1ccccc1 | 4.34 µM | 4.71 µM | 3.32 µM | 13.1 µM | 65.1 µM | 5.54 µM | 3.14 µM |  |  |  |  |  |  |  |  |  | 
CCC(C)C(=O)OC1CC2(C)C(c3ccoc3)OC(=O)CC23OC2(C)OC34C(OC(=O)C(C)C)C3(O)C(OC(=O)C5(C)OC5C)C5(C)CC3(O)C(C)(C5CC(=O)OC)C14O2 (stereo not drawn) |  | > 100 µM | > 100 µM | > 100 µM | > 100 µM | 74.1 µM | > 100 µM | > 100 µM | 87 µM |  |  |  |  |  |  |  | 
CC(=O)OCC(OC(C)=O)C1C[C@H]2O[C@@H]3[C@H](C[C@H]2O1)O[C@@]1(C[C@@H]3C)C[C@H](C)[C@@H]2O[C@]3(C[C@@H]2O1)C[C@H]1O[C@H]2[C@H](C)[C@H]4OC(=O)CC5CC[C@H]6OC7[C@H]8O[C@]9(CC[C@H]%10CC(O)(CO)[C@H](CC[C@H]%11C[C@@H](C)C(O)(CO)C(C[C@@H]4O[C@H]2C[C@H]1O3)O%11)O%10)CC8O[C@@H]7[C@@H](O9)[C@H]6O5 (stereo partly drawn) |  | > 1 µM |  | 0.0688 µM |  | > 1 µM | 0.0139 µM | 0.00517 µM | > 1 µM |  |  |  |  |  |  |  | 
c1ccc2c3c(c(N4CCOCC4)nc2c1)CCCC3 |  | > 100 µM | > 100 µM | > 100 µM | 72.8 µM | > 100 µM | > 100 µM | > 100 µM | 54.7 µM |  |  |  |  |  |  |  | 
FC(F)(F)c1ccc2nc3n(c2c1)C(c1c(Cl)cccc1Cl)SC3 (stereo not drawn) |  | 32.1 µM | 24.3 µM | 32.3 µM | 26.9 µM |  | 30.5 µM | 68.9 µM |  |  |  |  |  |  |  |  | 
CCC(=O)Oc1c2ccsc2c(OC(=O)CC)c2ccsc12 |  | 5.49 µM | 0.136 µM | 0.679 µM | 3.88 µM | 9.52 µM | 0.159 µM | 1.2 µM | 0.216 µM |  |  |  |  |  |  |  | 
Cc1cc2ncc3c(=O)n(NS(=O)(=O)c4ccc(N)cc4)ccc3n2n1 |  | > 100 µM | > 100 µM | > 100 µM | > 100 µM | > 100 µM | > 100 µM | > 100 µM | > 100 µM |  |  |  |  |  |  |  | 
COc1ccc2c(c1)CC1=C(O2)c2ccc(OC)cc2OC1 | > 100 µM | 36.5 µM | 38.4 µM | > 100 µM | 37.5 µM | > 100 µM | 47.5 µM |  | 42.4 µM |  |  |  |  |  |  |  | 
COc1cc2c(/C=C3/C(=O)Nc4ccccc43)c(Cl)[nH]c2cc1C | 24.9 µM | 17.4 µM | 0.0396 µM | 1.08 µM | 41.1 µM | > 67.8 µM |  | > 100 µM | 1.42 µM |  |  |  |  |  |  |  | 
O=c1oc2cc(O)ccc2c(O)c1C(c1ccc(C(c2c(O)c3ccc(O)cc3oc2=O)c2c(O)c3ccc(O)cc3oc2=O)cc1)c1c(O)c2ccc(O)cc2oc1=O |  |  | > 100 µM | > 100 µM | > 100 µM | > 100 µM | > 100 µM | > 100 µM | > 100 µM |  |  |  |  |  |  |  | 
CC1(C)OCC2OC3([C@H]4OC(C)(C)O[C@@H]4CO)OC(C)(C)OC3C2O1 (stereo partly drawn) | > 100 µM | > 100 µM | > 100 µM | > 100 µM | > 100 µM | > 100 µM | > 100 µM |  | > 100 µM |  |  |  |  |  |  |  | 
N#Cc1c(-c2ccc(F)cc2)nc(N/N=C/c2c[nH]c3ccccc23)nc1N1CCOCC1 | > 100 µM | 30.7 µM |  | > 100 µM | 40 µM | > 100 µM | 74.9 µM | 32.5 µM | 25.9 µM | 3.35 µM | 2.24 µM | 3.62 µM | 10.9 µM | 2.9 µM | 9.16 µM | 3.43 µM | 9.26 µM
CSc1nc2c(c(=O)n1C)N=C(c1ccccc1)[C@H](C(CC(=O)c1ccccc1)c1ccccc1)C(c1ccccc1)N2 (stereo partly drawn) | > 100 µM | > 100 µM | > 100 µM | > 100 µM |  | > 100 µM | > 100 µM |  | > 100 µM |  |  |  |  |  |  |  | 
Cc1nc(C)c(Cc2ccccc2)o1 |  | > 100 µM | > 100 µM | > 100 µM | > 100 µM | > 100 µM | > 100 µM | > 100 µM | > 100 µM |  |  |  |  |  |  |  | 
COC(=O)CC(NC(=O)OCc1ccccc1)C(=O)NC(CC(=O)OC)C(=O)NC(CC(=O)OC)C(=O)NC(CC(=O)OC)C(=O)NC(CC(=O)OC)C(=O)NC(CC(=O)OC)C(=O)NN (stereo not drawn) (Cbz-D(OMe)D(OMe)D(OMe)D(OMe)D(OMe)D(OMe)-NHNH2; configuration not given here) | > 100 µM | > 100 µM | > 100 µM |  | > 100 µM | > 100 µM | > 100 µM | > 100 µM | > 100 µM |  |  |  |  |  |  |  | 
COc1ccc(Nc2nc3c([nH]2)c(=O)n(C)c(=O)n3C)cc1 | > 10 µM |  | > 10 µM | > 10 µM | > 10 µM | > 10 µM | > 10 µM |  | > 10 µM |  |  |  |  |  |  |  | 
